Measurements taken from ChEMBL document CHEMBL1201862, “PubChem BioAssay data set” (2004).
Where “and” joins values, the source holds several entries; their conditions need not be identical. Identical values can stand only once.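 Tested at 5 concentrations; 48 h exposure; 96-well plates; endpoints linearly interpolated, else capped at highest concentration. The concentration for 50% growth inhibition is given as GI50.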 Calls of active or inactive are those of the source. Rule as the data show it: active = GI50 up to about 1.1 µM and inactive = higher.

Experiments:
Test in all cases: growth of human tumour cells (NCI), 48 h
DLD-1 = system: DLD-1
DMS-114 = system: DMS-114
DMS-273 = system: DMS-273
HOP-92 = system: HOP-92
LOX IMVI = system: LOX IMVI
LXFL 529 = system: LXFL 529
M14 = system: M14
M19-MEL = system: M19-MEL
NCI-H522 = system: NCI-H522
NCI/ADR-RES = system: NCI/ADR-RES
OVCAR-3 = system: OVCAR-3
PC-3 = system: PC-3
SNB-78 = system: SNB-78
XF498 = system: XF498
786-0 = system: 786-0
A498 = system: A498
A549 = system: A549
ACHN = system: ACHN
CAKI-1 = system: CAKI-1
CCRF-CEM = system: CCRF-CEM
COLO 205 = system: COLO 205
EKVX = system: EKVX
HCC 2998 = system: HCC 2998
HCT-116 = system: HCT-116
HCT-15 = system: HCT-15
HL-60 = system: HL-60
HOP-62 = system: HOP-62
HT-29 = system: HT-29
IGROV-1 = system: IGROV-1
K562 = system: K562
KM-20L2 = system: KM-20L2
KM12 = system: KM12
MOLT-4 = system: MOLT-4
Malme-3M = system: Malme-3M
NCI-H23 = system: NCI-H23
NCI-H460 = system: NCI-H460
OVCAR-4 = system: OVCAR-4
OVCAR-5 = system: OVCAR-5
OVCAR-8 = system: OVCAR-8
RPMI-8226 = system: RPMI-8226
RXF 393 = system: RXF 393
SF-268 = system: SF-268
SF-295 = system: SF-295
SK-MEL-28 = system: SK-MEL-28
SK-MEL-2 = system: SK-MEL-2
SK-MEL-5 = system: SK-MEL-5
SK-OV-3 = system: SK-OV-3
SN12C = system: SN12C
SNB-19 = system: SNB-19
SNB-75 = system: SNB-75
SR = system: SR
SW-620 = system: SW-620
TK-10 = system: TK-10
U-251 = system: U-251
UACC-257 = system: UACC-257
UACC-62 = system: UACC-62
UO-31 = system: UO-31
BT-549 = system: BT-549
DU-145 = system: DU-145
Hs-578T = system: Hs-578T
MCF7 = system: MCF7
MDA-MB-231 = system: MDA-MB-231
MDA-MB-435 = system: MDA-MB-435
MDA-N = system: MDA-N
NCI-H226 = system: NCI-H226
SF-539 = system: SF-539
T47D = system: T47D

CCC1(O)CC(OC2CC(N(C)C)C(OC3CC4OC5CC(=O)C(C)OC5OC4C(C)O3)C(C)O2)c2c(cc3c(c2O)C(=O)c2c(O)ccc(O)c2C3=O)C1C(=O)OC (stereo not drawn)
GI50 (DLD-1): 0.00792 µM (active) | GI50 (DMS-114): 0.00575 µM (active) | GI50 (DMS-273): 0.00365 µM (active) | GI50 (HOP-92): 0.00624 µM (active) | GI50 (LOX IMVI): 0.000953 µM (active) | GI50 (LXFL 529): > 0.01 µM (active) | GI50 (M14): > 10 nM (active) and 5.62 nM (active) | GI50 (M19-MEL): 0.00887 µM (active) | GI50 (NCI-H522): 0.00224 µM (active) | GI50 (NCI/ADR-RES): 0.00479 µM (active) | GI50 (OVCAR-3): > 10 nM (active) and 5.92 nM (active) | GI50 (PC-3): 0.00315 µM (active) | GI50 (SNB-78): 0.0166 µM (active) | GI50 (XF498): 0.00828 µM (active)

O=C1Oc2cc3c(c4cccc1c24)OCN(c1ccccc1)C3
GI50 (786-0): > 100 µM (inactive) | GI50 (A498): > 100 µM (inactive) | GI50 (A549): > 100 µM (inactive) | GI50 (ACHN): > 100 µM (inactive) | GI50 (CAKI-1): 78.3 µM (inactive) | GI50 (CCRF-CEM): 29.1 µM (inactive) | GI50 (COLO 205): > 100 µM (inactive) | GI50 (DLD-1): > 100 µM (inactive) | GI50 (DMS-114): 38.1 µM (inactive) | GI50 (DMS-273): > 100 µM (inactive) | GI50 (EKVX): > 100 µM (inactive) | GI50 (HCC 2998): > 100 µM (inactive) | GI50 (HCT-116): > 100 µM (inactive) | GI50 (HCT-15): 79.1 µM | GI50 (HL-60): 43.5 µM (inactive) | GI50 (HOP-62): > 100 µM (inactive) | GI50 (HOP-92): 41.7 µM (inactive) | GI50 (HT-29): > 100 µM (inactive) | GI50 (IGROV-1): > 100 µM (inactive) | GI50 (K562): 23.2 µM (inactive) | GI50 (KM-20L2): > 100 µM (inactive) | GI50 (KM12): > 100 µM (inactive) | GI50 (LOX IMVI): 43.7 µM (inactive) | GI50 (LXFL 529): 38.6 µM (inactive) | GI50 (M14): > 100 µM (inactive) | GI50 (M19-MEL): 38.8 µM (inactive) | GI50 (MOLT-4): > 100 µM (inactive) | GI50 (Malme-3M): > 100 µM (inactive) | GI50 (NCI-H23): > 100 µM (inactive) | GI50 (NCI-H460): > 100 µM (inactive) | GI50 (NCI-H522): 26.2 µM (inactive) | GI50 (OVCAR-3): > 100 µM (inactive) | GI50 (OVCAR-4): > 100 µM (inactive) | GI50 (OVCAR-5): > 100 µM (inactive) | GI50 (OVCAR-8): > 100 µM (inactive) | GI50 (RPMI-8226): 35.1 µM (inactive) | GI50 (RXF 393): > 100 µM (inactive) | GI50 (SF-268): > 100 µM (inactive) | GI50 (SF-295): > 100 µM (inactive) | GI50 (SK-MEL-28): > 100 µM (inactive) | GI50 (SK-MEL-2): > 100 µM (inactive) | GI50 (SK-MEL-5): > 100 µM (inactive) | GI50 (SK-OV-3): > 100 µM (inactive) | GI50 (SN12C): > 100 µM (inactive) | GI50 (SNB-19): > 100 µM (inactive) | GI50 (SNB-75): > 100 µM (inactive) | GI50 (SR): 44.8 µM (inactive) | GI50 (SW-620): 83.9 µM (inactive) | GI50 (TK-10): > 100 µM (inactive) | GI50 (U-251): > 100 µM (inactive) | GI50 (UACC-257): > 100 µM (inactive) | GI50 (UACC-62): 36.5 µM (inactive) | GI50 (UO-31): > 100 µM (inactive) | GI50 (XF498): > 100 µM (inactive)

C#CCSc1nc(N)c2ncn(C3OC(CO)C(O)C3O)c2n1 (stereo not drawn)
GI50 (786-0): > 100 µM (inactive) | GI50 (A498): > 100 µM (inactive) | GI50 (A549): > 100 µM (inactive) | GI50 (ACHN): > 100 µM (inactive) | GI50 (CCRF-CEM): > 100 µM (inactive) | GI50 (COLO 205): > 100 µM (inactive) | GI50 (DLD-1): > 100 µM (inactive) | GI50 (DMS-114): > 100 µM (inactive) | GI50 (DMS-273): > 100 µM (inactive) | GI50 (EKVX): > 100 µM (inactive) | GI50 (HCC 2998): > 100 µM (inactive) | GI50 (HCT-116): > 100 µM (inactive) | GI50 (HCT-15): > 100 µM | GI50 (HL-60): > 100 µM (inactive) | GI50 (HOP-62): > 100 µM (inactive) | GI50 (HT-29): > 100 µM (inactive) | GI50 (IGROV-1): > 100 µM (inactive) | GI50 (K562): > 100 µM (inactive) | GI50 (KM12): > 100 µM (inactive) | GI50 (LOX IMVI): > 100 µM (inactive) | GI50 (LXFL 529): > 100 µM (inactive) | GI50 (M19-MEL): > 100 µM (inactive) | GI50 (MOLT-4): > 100 µM (inactive) | GI50 (Malme-3M): > 100 µM (inactive) | GI50 (NCI-H23): > 100 µM (inactive) | GI50 (NCI-H460): > 100 µM (inactive) | GI50 (NCI-H522): > 100 µM (inactive) | GI50 (OVCAR-3): > 100 µM (inactive) | GI50 (OVCAR-4): > 100 µM (inactive) | GI50 (OVCAR-8): > 100 µM (inactive) | GI50 (RPMI-8226): > 100 µM (inactive) | GI50 (RXF 393): > 100 µM (inactive) | GI50 (SF-268): > 100 µM (inactive) | GI50 (SF-295): > 100 µM (inactive) | GI50 (SK-MEL-28): > 100 µM (inactive) | GI50 (SK-MEL-5): > 100 µM (inactive) | GI50 (SN12C): > 100 µM (inactive) | GI50 (SNB-19): > 100 µM (inactive) | GI50 (SNB-78): > 100 µM (inactive) | GI50 (SR): > 100 µM (inactive) | GI50 (SW-620): > 100 µM (inactive) | GI50 (TK-10): > 100 µM (inactive) | GI50 (U-251): > 100 µM (inactive) | GI50 (UACC-257): > 100 µM (inactive) | GI50 (UO-31): > 100 µM (inactive) | GI50 (XF498): > 100 µM (inactive)

C=CCSS/C=C/C[S+]([O-])CC=C (stereo not drawn) [AJOENE]
GI50 (786-0): 18.3 µM (inactive) | GI50 (A498): > 100 µM (inactive) | GI50 (A549): 61 µM (inactive) | GI50 (ACHN): 51.1 µM (inactive) | GI50 (BT-549): 25.6 µM (inactive) | GI50 (CAKI-1): 26.9 µM (inactive) | GI50 (CCRF-CEM): 3.44 µM (inactive) | GI50 (COLO 205): 24.7 µM (inactive) | GI50 (DU-145): 68.2 µM (inactive) | GI50 (EKVX): > 100 µM (inactive) | GI50 (HCC 2998): 63.1 µM (inactive) | GI50 (HCT-116): 13.1 µM (inactive) | GI50 (HCT-15): 35.5 µM | GI50 (HL-60): 5.05 µM (inactive) | GI50 (HOP-62): > 100 µM (inactive) | GI50 (HOP-92): 48.3 µM (inactive) | GI50 (HT-29): 29.9 µM (inactive) | GI50 (Hs-578T): 26.4 µM (inactive) | GI50 (IGROV-1): 43.4 µM (inactive) | GI50 (K562): 5.83 µM (inactive) | GI50 (KM12): 57.8 µM (inactive) | GI50 (LOX IMVI): 14.6 µM (inactive) | GI50 (M14): 20.9 µM (inactive) | GI50 (MCF7): 44.2 µM (inactive) | GI50 (MDA-MB-231): 25.2 µM (inactive) | GI50 (MDA-MB-435): 18.2 µM (inactive) | GI50 (MDA-N): 18.8 µM (inactive) | GI50 (MOLT-4): 3.95 µM (inactive) | GI50 (Malme-3M): 49.2 µM (inactive) | GI50 (NCI-H226): 41.3 µM (inactive) | GI50 (NCI-H23): 46.6 µM (inactive) | GI50 (NCI-H460): 35.8 µM (inactive) | GI50 (NCI-H522): 16.7 µM (inactive) | GI50 (NCI/ADR-RES): 26.2 µM (inactive) | GI50 (OVCAR-3): 37.1 µM (inactive) | GI50 (OVCAR-4): > 54.8 µM (inactive) | GI50 (OVCAR-5): 36.6 µM (inactive) | GI50 (OVCAR-8): 18.5 µM (inactive) | GI50 (PC-3): 39.1 µM (inactive) | GI50 (RPMI-8226): 10.4 µM (inactive) | GI50 (RXF 393): 24.9 µM (inactive) | GI50 (SF-268): 25 µM (inactive) | GI50 (SF-295): 58.7 µM (inactive) | GI50 (SF-539): 25 µM (inactive) | GI50 (SK-MEL-28): 20.7 µM (inactive) | GI50 (SK-MEL-2): > 52.2 µM (inactive) | GI50 (SK-MEL-5): 36.6 µM (inactive) | GI50 (SK-OV-3): 64 µM (inactive) | GI50 (SN12C): 26 µM (inactive) | GI50 (SNB-19): > 100 µM (inactive) | GI50 (SNB-75): 70 µM (inactive) | GI50 (SR): 12.4 µM (inactive) | GI50 (SW-620): 7.8 µM (inactive) | GI50 (T47D): > 56.1 µM (inactive) | GI50 (TK-10): > 85.7 µM (inactive) | GI50 (U-251): 60 µM (inactive) | GI50 (UACC-257): 50.9 µM (inactive) | GI50 (UACC-62): 36.3 µM (inactive) | GI50 (UO-31): 37.8 µM (inactive)
